Measured values reported in patent publication US9670204B2, “Compounds and pharmaceutical compositions thereof for the treatment of inflammatory disorders” (Galapagos NV, priority 2013, dated 2017).

How the values were obtained:
[1] = biological target: T1, hENPP2 (UniProtKB/SwissProt Q13822) (Homo sapiens (Human), UniProt Q13822); assay: hENPP2 biochemical assay, LPC as substrate; conditions: LPC (palmitoyl 16:0) as substrate
Procedure, shortened: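 Human ENPP2 in 50 mM Tris-HCl pH 8.5, 500 mM NaCl, 5 mM KCl, 10 mM CaCl2, 0.1% fatty-acid-free BSA, reacted 30 min at 37 °C with LPC 16:0 (150 µM solution added 1:1). Released choline measured via choline oxidase/peroxidase/TOOS/4-aminoantipyrine quinoneimine dye at 555 nm; IC50 reported.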

[2] = test system: LPA 18:2 in rat plasma; assay: Rat whole blood (plasma) LPA assay; assay type: biochemical; conditions: 2 h at 37 C, LPA 18:2 by LC-MS/MS
Description: Whole blood is collected from rats or mouse by exsanguinations on sodium heparin tube, then after centrifugation at 3000 rpm for 15 min at 4° C., plasma is stored at −80° C. Compounds are diluted in DMSO in concentration dependent manner then 0.5 μL are dispensed into 96-well plate placed in ice. Plasma is defrosted on ice then 49.5 μL of plasma are added into the well containing 0.5 μL of compound (1% DMSO final). Plates are covered with a lid in polypropylene and incubated at +37° C., 5% CO2, for 2 h under gentle shaking (except controls which are stored at −20° C.).
At the end of the incubation, controls are defrosted in ice and transferred in the incubated plates for LC-MS/MS analysis with a non GLP-validated method. For the analysis, plasma proteins from a 10 μL incubated plates are precipitated with an excess of methanol containing the internal standard, LPA 17:0. After centrifugation, the corresponding supernatant is injected on a C18 column. Analytes are eluted out of the column under isocratic conditions. An API5500 QTRAP mass spectrometer (ABSciex™) is used for the detection of LPA 18:2. No calibration curve is prepared for LPA 18:2, however relative quantities are evaluated based on the peak area.

[3] = biological target: T1, hENPP2; assay: fluorescent hENPP2 biochemical assay, FS-3 as substrate; conditions: read-out: FS3-IC50
Procedure, shortened: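 hENPP2 in 50 mM Tris-HCl pH 8.0, 250 mM NaCl, 5 mM KCl, 1 mM MgCl2, 1 mM CaCl2, 0.1% fatty-acid-free BSA, preincubated with compound 30 min at room temperature. The 0.75 μM FS-3 solution was added and the mixture incubated 30 min at 30° C. Fluorescence (ex 485/em 520 nm) gives IC50.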

| Compound | IC50 [1] | IC50 [2] | IC50 [3] |
| --- | --- | --- | --- |
| CCc1nc2ccc(N3CCN(C(=O)C4CCN(C(C)=O)C4)CC3)cn2c1N(C)c1nc(-c2ccc(F)cc2)cs1 (centres unmarked) [Compound 48, 1-{3-[4-(2-Ethyl-3-{[4-(4-fluoro-phenyl)-thiazol-2-yl]-methyl-amino}-imidazo[1,2-a]pyridin-6-yl)-piperazine-1-carbonyl]-pyrrolidin-1-yl}-ethanone] | > 1000 nM | > 1000 nM |  |
| CCc1nc2ccc(C3CCN(CC(=O)N4CC(O)C4)CC3)cn2c1N(C)c1nc(-c2ccc(F)cc2)c(CO)s1 [Compound 156, 2-(4-(2-ethyl-3-((4-(4-fluorophenyl)-5-(hydroxymethyl)thiazol-2-yl)(methyl)amino)imidazo[1,2-a]pyridin-6-yl)piperidin-1-yl)-1-(3-hydroxyazetidin-1-yl)ethanone] | 500 to 1000 nM | > 1000 nM | 0.01 to 100 nM |
| CCc1nc2ccc(C3CCN(S(C)(=O)=O)CC3)cn2c1N(C)c1nc(-c2ccc(F)cc2C)cs1 [Compound 98, N-(2-ethyl-6-(1-(methylsulfonyl)piperidin-4-yl)imidazo[1,2-a]pyridin-3-yl)-4-(4-fluoro-2-methylphenyl)-N-methylthiazol-2-amine] | 500 to 1000 nM | 100 to 500 nM | 0.01 to 100 nM |
| CCc1nc2ccc(C3CCN(S(=O)(=O)CCCO)CC3)cn2c1N(C)c1nc(-c2ccc(F)cc2)c(F)s1 [Compound 95, 3-[4-(2-Ethyl-3-{[5-fluoro-4-(4-fluoro-phenyl)-thiazol-2-yl]-methyl-amino}-imidazo[1,2-a]pyridin-6-yl)-piperidine-1-sulfonyl]-propan-1-ol] | > 1000 nM | 100 to 500 nM | 0.01 to 100 nM |
| CCc1nc2ccc(N3CCN(S(=O)(=O)CCCN(C)C)CC3)cn2c1N(C)c1nc(-c2ccc(F)cc2)cs1 [Compound 56, N-(6-(4-(3-(dimethylamino)propyl-sulfonyl)piperazin-1-yl)-2-ethylimidazo[1,2-a]pyridin-3-yl)-4-(4-fluorophenyl)-N-methylthiazol-2-amine] | 500 to 1000 nM | > 1000 nM | 0.01 to 100 nM |
| CCc1nc2ccc(C3CCN(CC(=O)N4CC[C@H](O)C4)CC3)cn2c1N(C)c1nc(-c2ccc(F)cc2)cs1 [Compound 112, (S)-2-(4-(2-ethyl-3-((4-(4-fluorophenyl)thiazol-2-yl)(methyl)amino)imidazo[1,2-a]pyridin-6-yl)piperidin-1-yl)-1-(3-hydroxypyrrolidin-1-yl)ethanone] | 100 to 500 nM | 100 to 500 nM | 0.01 to 100 nM |
| CCc1nc2ccc(C3=CCN(S(C)(=O)=O)CC3)cn2c1N(C)c1nc(-c2ccc(F)cc2)cs1 [Compound 66, N-(2-ethyl-6-(1-(methylsulfonyl)-1,2,3,6-tetrahydropyridin-4-yl)imidazo[1,2-a]pyridin-3-yl)-4-(4-fluorophenyl)-N-methylthiazol-2-amine] | > 1000 nM | > 1000 nM | 0.01 to 100 nM |
| CCc1nc2ccc(N3CCOC3=O)cn2c1N(C)c1nc(-c2ccc(Cl)cc2)cs1 [Compound 206, 3-(3-((4-(4-chlorophenyl)thiazol-2-yl)(methyl)amino)-2-ethylimidazo[1,2-a]pyridin-6-yl)oxazolidin-2-one] | > 1000 nM | > 1000 nM | 0.01 to 100 nM |
| CCc1nc2ccc(N3CCS(=O)(=O)CC3)cn2c1N(C)c1nc(-c2ccc(Cl)cc2)cs1 [Compound 213, 4-(2-ethyl-3-((4-(4-chlorophenyl)thiazol-2-yl)(methyl)amino)imidazo[1,2-a]pyridin-6-yl)-thiomorpholin-1,1-dioxide] | > 1000 nM | > 1000 nM | 0.01 to 100 nM |
| CN(c1nc(-c2ccc(F)cc2)c(CO)s1)c1c(CCC#N)nc2ccc(C3CCN(S(C)(=O)=O)CC3)cn12 [Compound 175, 3-(3-((4-(4-fluorophenyl)-5-(hydroxymethyl)thiazol-2-yl)(methyl)amino)-6-(1-(methylsulfonyl)piperidin-4-yl)imidazo[1,2-a]pyridin-2-yl)propanenitrile] | 500 to 1000 nM | 100 to 500 nM |  |
| CCc1nc2ccc(C3CCN(S(=O)(=O)CCCN(C)C)CC3)cn2c1N(C)c1nc(-c2ccc(F)cc2)c(CO)s1 [Compound 149, (2-((6-(1-(3-(dimethylamino)propyl-sulfonyl)piperidin-4-yl)-2-ethylimidazo[1,2-a]pyridin-3-yl)(methyl)amino)-4-(4-fluorophenyl)thiazol-5-yl)] | 100 to 500 nM | > 1000 nM |  |

The next lines start with the values.

| IC50 [1] | IC50 [2] | IC50 [3] | Compound |
| --- | --- | --- | --- |
| 100 to 500 nM | 0.01 to 100 nM | 0.01 to 100 nM | CCc1nc2ccc(C3CCN(S(C)(=O)=O)CC3)cn2c1N(C)c1nc(-c2ccc(F)cc2)c(C#N)s1 [Compound 136, 2-((2-ethyl-6-(1-(methylsulfonyl)piperidin-4-yl)imidazo [1,2-a]pyridin-3-yl)(methyl)amino)-4-(4-fluorophenyl) thiazole-5-carbonitrile] |
| 0.01 to 100 nM | 0.01 to 100 nM | 0.01 to 100 nM | CCc1nc2ccc(C3CCN(CC(=O)N4CCCC4)CC3)cn2c1N(C)c1nc(-c2ccc(F)cc2)cs1 [Compound 115, 2-(4-(2-ethyl-3-((4-(4-fluorophenyl)thiazol-2-yl)(methyl)amino)imidazo[1,2-a]pyridin-6-yl)piperidin-1-yl)-1-(pyrrolidin-1-yl)ethanone] |
| 100 to 500 nM | 500 to 1000 nM | 0.01 to 100 nM | CCc1nc2c(C)cc(N3CCN(CC(=O)N4CC[C@H](O)C4)CC3)cn2c1N(C)c1nc(-c2ccc(F)cc2)c(C#N)s1 [Compound 5, (S)-2-((2-ethyl-6-(4-(2-(3-hydroxypyrrolidin-1-yl)-2-oxoethyl)piperazin-1-yl)-8-methylimidazo[1,2-a]pyridin-3-yl)(methyl)amino)-4-(4-fluorophenyl)thiazole-5-carbonitrile] |
| 100 to 500 nM | 100 to 500 nM | 0.01 to 100 nM | CCc1nc2ccc(N3CCN(CC(=O)N4CC(O)C4)CC3)cn2c1N(C)c1nc(-c2ccc(F)cc2C#N)c(C)s1 [Compound 162, 2-(2-((2-ethyl-6-(4-(2-(3-hydroxyazetidin-1-yl)-2-oxoethyl)piperazin-1-yl)imidazo[1,2-a]pyridin-3-yl)(methyl)amino)-5-methylthiazol-4-yl)-5-fluorobenzonitrile] |
| 0.01 to 100 nM | 0.01 to 100 nM |  | CCc1nc2ccc(C3CCN(CC(=O)N4CC(CO)C4)CC3)cn2c1N(C)c1nc(-c2ccc(F)cc2)c(C#N)s1 [Compound 144, 2-((2-ethyl-6-(1-(2-(3-(hydroxymethyl)azetidin-1-yl)-2-oxoethyl)piperidin-4-yl)imidazo[1,2-a]pyridin-3-yl)(methyl)amino)-4-(4-fluorophenyl)thiazole-5-carbonitrile] |
| 0.01 to 100 nM | 100 to 500 nM | 0.01 to 100 nM | CCc1nc2ccc(C3CCN(CC(=O)N4CC(O)C4)CC3)cn2c1N(C)c1nc(-c2ccc(F)cc2C#N)ns1 [Compound 173, 2-(5-((2-ethyl-6-(1-(2-(3-hydroxyazetidin-1-yl)-2-oxoethyl)piperidin-4-yl)imidazo[1,2-a]pyridin-3-yl)(methyl)amino)-1,2,4-thiadiazol-3-yl)-5-fluorobenzonitrile] |
| 100 to 500 nM | 500 to 1000 nM | 0.01 to 100 nM | CCc1nc2ccc(C3CCN(CC(=O)N(C)C)CC3)cn2c1N(C)c1nc(-c2ccc(F)cc2)cs1 [Compound 114, 2-(4-(2-ethyl-3-((4-(4-fluorophenyl)thiazol-2-yl)(methyl)amino)imidazo[1,2-a]pyridin-6-yl)piperidin-1-yl)-N,N-dimethylacetamide] |
| 100 to 500 nM | 500 to 1000 nM |  | CCC(=O)N1CCC(c2ccc3nc(CC)c(N(C)c4nc(-c5ccc(F)cc5)c(CO)s4)n3c2)CC1 [Compound 154, 1-(4-(2-ethyl-3-((4-(4-fluorophenyl)-5-(hydroxymethyl)thiazol-2-yl)(methyl)amino)imidazo[1,2-a]pyridin-6-yl)piperidin-1-yl)propan-1-one] |
| 100 to 500 nM | > 1000 nM |  | CCc1nc2ccc(C3=CCN(S(C)(=O)=O)CC3)cn2c1N(C)c1nc(-c2ccc(OC(F)(F)F)cc2)cs1 [Compound 72, N-(2-ethyl-6-(1-(methylsulfonyl)-1,2,3,6-tetrahydropyridin-4-yl)imidazo[1,2-a]pyridin-3-yl)-N-methyl-4-(4-(trifluoromethoxy)phenyl)thiazol-2-amine] |
| 0.01 to 100 nM | 0.01 to 100 nM |  | CCc1nc2ccc(N3CCN(CC(=O)N(C)C)CC3)cn2c1N(C)c1nc(-c2ccc(F)cc2)c(C#N)s1 [Compound 140, 2-(4-(3-((5-cyano-4-(4-fluorophenyl)thiazol-2-yl)(methyl)amino)-2-ethylimidazo[1,2-a]pyridin-6-yl)piperazin-1-yl)-N,N-dimethylacetamide] |
